US11591369B2, “Alpha(v)beta(6) integrin-binding peptides and methods of use thereof” (priority 2018, dated 2023)
Like-named read-outs stand apart in the source and are kept apart here. Where a SMILES comes first, the peptide text is derived from it. The star is where a group is joined. Benzoyl(4-F) = O=C(c1ccc(F)cc1)*

Experiments:
αvβ6 integrin = target: T1, αvβ6 integrin (Homo sapiens, UniProt P06756+P18564); assay: Competitive binding ELISA against biotinylated LAP (BtLAP), αvβ6 integrin; settings: for binding selectivity for αvβ6 over αvβ3 and αvβ8 integrins: ELISA IC50 ratio; for IC50 αvβ6: competitive ELISA vs BtLAP, mean ± SD, n = 3
T1 construct: All purified integrins were purchased from R&D Systems (MN, USA); purchased R&D Systems (MN, USA)

αvβ3 integrin = target: T2, αvβ3 integrin (Homo sapiens, UniProt P05106+P06756); assay: Competitive binding ELISA, αvβ3 integrin
T2 construct: All purified integrins were purchased from R&D Systems (MN, USA); purchased R&D Systems (MN, USA)

αvβ8 integrin = target: T3, αvβ8 integrin (Homo sapiens, UniProt P06756+P26012); assay: Competitive binding ELISA, αvβ8 integrin
T3 construct: All purified integrins were purchased from R&D Systems (MN, USA); purchased R&D Systems (MN, USA)

DX3puroβ6 (αvβ6+) cells = assay: [18F]-radiolabeled peptide cell binding and internalization, DX3puroβ6 (αvβ6+) cells; format: cell-based, human; settings: for binding to DX3puroβ6 (αvβ6+) cells: % of total activity, 37° C.
[1] = Circular dichroism (CD) spectroscopy; format: physicochemical; settings: for % Helical Content CD Buffer: 25 mM phosphate + 100 mM NaF; for % Helical Content CD Buffer + 30% TFE: buffer with 30% trifluoroethanol; for α-helix formation in CD buffer with TFE: buffer with added TFE, 30%
[2] = tested on: αvβ6-expressing human tumors; settings: mouse, in vivo; cited from earlier work

Molecule | IC50 (αvβ6 integrin) [nM] | IC50 (αvβ3 integrin) [µM] | IC50 (αvβ8 integrin) [µM] | binding to DX3puroβ6 (αvβ6+) cells (DX3puroβ6 (αvβ6+) cells; 1 hour) [%] | DX3puroβ6 (αvβ6+)/DX3puro (αvβ6−) selectivity ratio (DX3puroβ6 (αvβ6+) cells; cell binding, 1 hour) | binding selectivity for αvβ6 over αvβ3 and αvβ8 integrins (αvβ6 integrin) | IC50 αvβ6 (αvβ6 integrin) | DX3puroβ6 (αvβ6+)/DX3puro (αvβ6−) selectivity ratio (DX3puroβ6 (αvβ6+) cells) | % Helical Content CD Buffer [1] [%] | % Helical Content CD Buffer + 30% TFE [1] [%] | α-helix formation in CD buffer with TFE [1] | unmetabolized peptide in urine [2]
CC(C)C[C@H](NC(=O)[C@H](CC(=O)O)NC(=O)[C@H](CO)NC(=O)[C@H](CCCNC(=N)N)NC(=O)c1ccc(F)cc1)C(=O)N[C@H](C(=O)N1CCC[C@H]1C(=O)N[C@@H](CC(C)C)C(=O)N[C@@H](Cc1ccccc1)C(=O)N[C@@H](CCC(N)=O)C(=O)N[C@@H](CCCCN)C(=O)N[C@H](C(=O)N[C@@H](C)C(=O)N[C@@H](CCCNC(=N)N)C(=O)N[C@H](C(N)=O)[C@@H](C)O)C(C)C)[C@@H](C)O [KL3Q] ({Benzoyl(4-F)}-RSDLTPLFQKVART-NH2) | 8.7 ± 0.7 | > 100 | > 100 | – | – | – | – | – | – | – | – | –
CC(C)C[C@H](NC(=O)[C@H](CC(=O)O)NC(=O)[C@H](CO)NC(=O)[C@H](CCCNC(=N)N)NC(=O)c1ccc(F)cc1)C(=O)N[C@H](C(=O)N1CCC[C@H]1C(=O)N[C@@H](CC(C)C)C(=O)N[C@@H](Cc1ccccc1)C(N)=O)[C@@H](C)O [KL3] ({Benzoyl(4-F)}-RSDLTPLF-NH2) | 1700 ± 500 | > 100 | > 100 | 0.7±0.2 | 0.9±0.5 :1 | – | – | – | – | – | – | –
CC(C)C[C@H](NC(=O)[C@H](Cc1ccc(O)cc1)NC(=O)[C@@H](NC(=O)[C@H](CC(C)C)NC(=O)[C@H](CC(=O)O)NC(=O)CNC(=O)[C@@H](NC(=O)c1ccc(F)cc1)C(C)C)[C@@H](C)O)C(=O)N[C@@H](CCCCN)C(=O)N[C@@H](CCCCN)C(=O)N[C@@H](CCCCN)C(=O)N[C@H](C(=O)N[C@@H](C)C(=O)N[C@@H](CCCNC(=N)N)C(=O)N[C@H](C(N)=O)[C@@H](C)O)C(C)C [P1K-b] | 10 ± 2 | > 100 | > 100 | – | – | 10,000 :1 | low nanomolar | – | – | – | – | –
CC(C)C[C@H](NC(=O)[C@H](Cc1ccc(O)cc1)NC(=O)[C@@H](NC(=O)[C@H](CC(C)C)NC(=O)[C@H](CC(=O)O)NC(=O)CNC(=O)[C@@H](NC(=O)c1ccc(F)cc1)C(C)C)[C@@H](C)O)C(=O)N[C@@H](CCCCN)C(=O)N[C@@H](CCCNC(=N)N)C(=O)N[C@@H](CCCCN)C(=O)N[C@@H](C)C(=O)N[C@H](C(=O)N[C@H](C(=O)N[C@@H](CCC(N)=O)C(N)=O)C(C)C)[C@@H](C)O [P1Q-Scrb] ({Benzoyl(4-F)}-VGDLTYLKRKATVQ-NH2) | 14 ± 2 | > 100 | 2.9 ± 0.74 | – | – | – | low nanomolar | – | – | – | – | –
CC(C)C[C@H](NC(=O)[C@H](Cc1ccc(O)cc1)NC(=O)[C@@H](NC(=O)[C@H](CC(C)C)NC(=O)[C@H](CC(=O)O)NC(=O)CNC(=O)[C@@H](NC(=O)c1ccc(F)cc1)C(C)C)[C@@H](C)O)C(=O)N[C@@H](CCCCN)C(=O)N[C@@H](CCC(N)=O)C(=O)N[C@@H](CCCCN)C(=O)N[C@H](C(=O)N[C@@H](C)C(=O)N[C@@H](CCCNC(=N)N)C(=O)N[C@H](C(N)=O)[C@@H](C)O)C(C)C [P1Q] | 12 ± 1 | > 100 | > 100 | – | – | 10,000 :1 | low nanomolar | 10.3 ± 1:1 | 1.6 | 45.1 | α-helices were induced | –
CC(C)C[C@H](NC(=O)[C@H](Cc1ccc(O)cc1)NC(=O)[C@@H](NC(=O)[C@H](CC(C)C)NC(=O)[C@H](CC(=O)O)NC(=O)CNC(=O)[C@@H](N)C(C)C)[C@@H](C)O)C(=O)N[C@@H](CCCCN)C(=O)N[C@@H](CCCCNC(=O)c1ccc(F)cc1)C(N)=O [P1] (H-VGDLTYLKK(Benzoyl(4-F))-NH2) | 450 ± 60 | > 100 | 5.3 ± 0.14 | – | – | – | – | 1.1 ± 0.1:1 | 6.3 | 9.5 | could not form the helix | –
CC(C)C[C@H](NC(=O)[C@H](CC(=O)O)NC(=O)CNC(=O)[C@H](CCCNC(=N)N)NC(=O)c1ccc(F)cc1)C(=O)N[C@@H](C)C(=O)N[C@@H](CC(=O)O)C(=O)N[C@@H](CC(C)C)C(=O)N[C@@H](CCCNC(=N)N)C(=O)N[C@@H](CCC(N)=O)C(=O)N[C@@H](CCCCN)C(=O)N[C@H](C(=O)N[C@@H](C)C(=O)N[C@@H](CCCNC(=N)N)C(=O)N[C@H](C(N)=O)[C@@H](C)O)C(C)C [P3Q] ({Benzoyl(4-F)}-RGDLADLRQKVART-NH2) | 4 ± 1 | > 100 | 0.02 ± 0.003 | – | 11.8 ± 0.4:1 | – | – | – | 14.7 | 30 | – | –
CC(C)C[C@H](NC(=O)[C@H](CC(=O)O)NC(=O)CNC(=O)[C@@H](N)CCCNC(=N)N)C(=O)N[C@@H](C)C(=O)N[C@@H](CC(=O)O)C(=O)N[C@@H](CC(C)C)C(=O)N[C@@H](CCCNC(=N)N)C(=O)N[C@@H](CCCCNC(=O)c1ccc(F)cc1)C(N)=O [P3] (H-RGDLADLRK(Benzoyl(4-F))-NH2) | 420 ± 70 | > 100 | 0.2 ± 0.02 | 10.8±1.4 | 1.4±0.2 :1 | – | – | – | 11.6 | 7 | – | –
FB-NAVPNLRGDLQVLAQKVART [A20FMDV2, reference compound] | – | – | – | – | – | – | – | 10:1 | – | – | – | no unmetabolized peptide was detected
